Data reported in US20120016010A1, “RNA Interference Mediated Inhibition of BTB and CNC Homology 1, Basic Leucine Zipper Transcription Factor 1 (BACH1) Gene Expression Using Short Interfering Nucleic Acid (siNA)” (Merck Sharp & Dohme Corp, priority 2009, published 2012).

Key:
Type in all cases: cell-based
Bach1 mRNA [1] = experiment: Dose-response curve of Bach1 mRNA knock-down in human A549 cells; conditions: for Maximum % KD in DRC: Table 6, Bach1 mRNA, mean ± SD; for IC50: Table 6, mean ± SD
Bach1 mRNA [2] = experiment: as above; conditions: three experiments, mean ± standard deviation; for IC50: Table 4, Bach1 mRNA knock-down; for Maximum % KD in DRC: Table 4, Bach1 mRNA, 12 concentrations 0.083 fM to 30 nM
Experimental: All calculations of IC50s were performed using SigmaPlot 10.0 software. The data were analyzed using the sigmoidal dose-response (variable slope) equation for simple ligand binding. In all of the calculations of the % knock-down, the calculation was made relative to the normalized level of expression of the gene of interest in the samples treated with the non-targeting control (Ctrl siNA) unless otherwise indicated. Summary data, as to potency and efficacy for Bach1 mRNA knock-down in human cells for certain siNA molecules, is presented in Table 4. Cells for the experiments were treated with 12 concentrations of siNA ranging from 0.083 fM to 30 nM. All of the data is presented as % knockdown of Bach1 normalized against the expression of GAPDH mRNA expression level. Then the data was determined as a % knockdown relative to the non-targeting control siNA.

Bach1 mRNA [3] = experiment: Initial screen: Bach1 mRNA knock-down in mouse NIH 3T3 cells (96-well transfection, quantitative RT-PCR); conditions: mouse NIH3T3 cells, n = 2, 24 hrs post-transfection, protocol 10 nM siNA

Row | Substance | Maximum % KD in DRC (Bach1 mRNA [1]) | IC50 (Bach1 mRNA [1]) | IC50 (Bach1 mRNA [2]) | Maximum % KD in DRC (Bach1 mRNA [2]) | % KD (Bach1 mRNA [3])
1 | 29947-DC (sense GGAAUCCUGCUUUCAGUUUTT; antisense AAACUGAAAGCAGGAUUCCUU; inverted abasic caps (B), 2'-modified nucleotides, further chemistry not given here) | 86 ± 0.5% | 27 ± 5 pM | 27 ± 5 pM | 86 ± 0.5% | 46 ± 5.8%
2 | 29956-DC (sense GUCUGAGUGUCCGUGGUUATT; antisense UAACCACGGACACUCAGACUU; inverted abasic caps (B), 2'-modified nucleotides, further chemistry not given here) | 80 ± 7.7% | 28 ± 18 pM | 28 ± 18 pM | 80 ± 7.7% | −14.5 ± 8.4%
3 | 29957-DC (sense GCAGUUACUUCCACUCAAGTT; antisense CUUGAGUGGAAGUAACUGCUU; inverted abasic end caps, TT overhangs, modified nucleotides, further chemistry not given here) | 87 ± 0.9% | 39 ± 13 pM | 39 ± 13 pM | 87 ± 0.9% | 42.4 ± 1.2%
4 | 29961-DC (sense CUACACUGCUAAACUGAUUTT; antisense AAUCAGUUUAGCAGUGUAGUU; inverted abasic end caps, TT overhangs, modified nucleotides, further chemistry not given here) | 89 ± 2.2% | 10 ± 4 pM | 10 ± 4 pM | 89 ± 2.2% | −23.5 ± 4.6%
5 | 29964-DC (sense GAUUUGCAGGUGAUGUUAATT; antisense UUAACAUCACCUGCAAAUCUU; inverted abasic end caps, TT overhangs, modified nucleotides, further chemistry not given here) | 87 ± 2.8% | 27 ± 15 pM | 27 ± 15 pM | 87 ± 2.8% | 19.6 ± 3.9%
6 | 29984-DC (sense GUUAAAGGAUUUGAACCUUTT; antisense AAGGUUCAAAUCCUUUAACUU; inverted abasic end caps, TT overhangs, modified nucleotides, further chemistry not given here) | – | – | – | – | 50.5 ± 0.8%
7 | 29988-DC (sense AUUUGAACCUUUAAUUCAGTT; antisense CUGAAUUAAAGGUUCAAAUUU; inverted abasic end caps, TT overhangs, modified nucleotides, further chemistry not given here) | 84 ± 0.9% | 63 ± 19 pM | 63 ± 19 pM | 84 ± 0.9% | 71.3 ± 8.9%
